Measured values taken from patent US20250275540A1, “USE OF PROTOPORPHYRINOGEN OXIDASE” (BEIJING DABEINONG BIOTECHNOLOGY CO., LTD., priority 2022, published 2025).

Tested on: transgenic Arabidopsis thaliana T1 plants
Test: Detection of the herbicide tolerance of the transgenic Arabidopsis thaliana plants
Format: in vivo
Details: for The grade of pesticide damage/plant: 0 / The grade of pesticide damage/plant: 1 / The grade of pesticide damage/plant: 2 / The grade of pesticide damage/plant: 3: 7 DAT
Source text: The transformed Arabidopsis thaliana T1 plants were initially selected using glufosinate herbicide. The Arabidopsis thaliana T1 plants (PPOA-01) into which the PPOA-01 nucleotide sequence was introduced, the Arabidopsis thaliana T1 plants (PPOB-01) into which the PPOB-01 nucleotide sequence was introduced, the Arabidopsis thaliana T1 plants (PPOC-01) into which the PPOC-01 nucleotide sequence was introduced, the Arabidopsis thaliana T1 plants (PPOD-01) into which the PPOD-01 nucleotide sequence was introduced, the Arabidopsis thaliana T1 plants (PPOE-01) into which the PPOE-01 nucleotide sequence was introduced, the Arabidopsis thaliana T1 plants (PPOF-01) into which the PPOF-01 nucleotide sequence was introduced, the Arabidopsis thaliana T1 plants (PPO-AP-01) into which the PPO-AP-01 nucleotide sequence was introduced, and the Arabidopsis thaliana T1 plants (control vector) into which the control vector was introduced, the wild-type Arabidopsis thaliana plants (CK) (with 24 plants being included in each genotype) (18 days after sowing) were sprayed with saflufenacil at three concentrations (25 g ai/ha (one-fold field concentration, 1×), 100 g ai/ha (four-fold field concentration, 4×), and 0 g ai/ha (water, 0×)), oxyfluorfen at three concentrations (180 g ai/ha (one-fold field concentration, 1×), 720 g ai/ha (four-fold field concentration, 4×), and 0 g ai/ha (water, 0×)), and flumioxazin at three concentrations (60 g ai/ha (one-fold field concentration, 1×), 240 g ai/ha (four-fold field concentration, 4×), and 0 g ai/ha (water, 0×) to determine the tolerance of Arabidopsis thaliana to the herbicides. After 7 days of spraying (7 DAT), the damage level of each plant caused by the herbicide was evaluated according to the average of the damage levels (%) of plants (the average of the damage levels (%) of plants=the injured leaf area/the total leaf area×100%), i.e., the grade of pesticide damage: grade 0 means that the growth status of plants is essentially consistent with those sprayed with the blank solvent (water); grade 1 means that the average of the damage levels of plants is less than 10%; grade 2 means that the average of the damage levels of plants is greater than 10%; and grade 3 means that the average of the damage levels of plants is 100%. The plants having a growth status falling within grades 0 and 1 are classified as highly resistant plants; those having a growth status falling within grade 2 are classified as poorly resistant plants; and those having a growth status falling within grade 3 are classified as non-resistant plants.

[1] = genotype Control vector, 60 g ai/ha
[2] = genotype Control vector, 240 g ai/ha
[3] = genotype PPO-AP-01, 240 g ai/ha

**Q.** C#CCN1C(=O)COc2cc(F)c(N3C(=O)C4=C(CCCC4)C3=O)cc21 [flumioxazin, 2-[7-fluoro-3,4-dihydro-3-oxo-4-(2-propynyl)-2H-1,4-benzoxazin-6-yl]-4,5,6,7-tetrahydro-1H-isoindole-1,3(2H)-dione] was tested. Which “effective dose distinguishing sensitive plants from plants having an average level of resistance” value (Arabidopsis thaliana) did it give?
**A.** 60 g ai/ha

**Q.** What about the “The grade of pesticide damage/plant: 0” value (genotype CK, 60 g ai/ha) of the same compound?
**A.** 0 plant

**Q.** What about the “The grade of pesticide damage/plant: 1” value (genotype CK, 60 g ai/ha) of the same compound?
**A.** 0 plant

**Q.** What about the “The grade of pesticide damage/plant: 2” value (genotype CK, 60 g ai/ha) of the same compound?
**A.** 0 plant

**Q.** And the “The grade of pesticide damage/plant: 3” value (genotype CK, 60 g ai/ha)?
**A.** 24 plant

**Q.** And the “The grade of pesticide damage/plant: 0” value (genotype CK, 240 g ai/ha)?
**A.** 0 plant

**Q.** And the “The grade of pesticide damage/plant: 1” value (genotype CK, 240 g ai/ha)?
**A.** 0 plant

**Q.** What about the “The grade of pesticide damage/plant: 2” value (genotype CK, 240 g ai/ha) of the same compound?
**A.** 0 plant

**Q.** What about the “The grade of pesticide damage/plant: 3” value (genotype CK, 240 g ai/ha) of the same compound?
**A.** 24 plant

**Q.** And the “The grade of pesticide damage/plant: 0” value [1]?
**A.** 0 plant

**Q.** And the “The grade of pesticide damage/plant: 1” value [1]?
**A.** 0 plant

**Q.** What about the “The grade of pesticide damage/plant: 2” value [1] of the same compound?
**A.** 0 plant

**Q.** And the “The grade of pesticide damage/plant: 3” value [1]?
**A.** 24 plant

**Q.** What about the “The grade of pesticide damage/plant: 0” value [2] of the same compound?
**A.** 0 plant

**Q.** And the “The grade of pesticide damage/plant: 1” value [2]?
**A.** 0 plant

**Q.** And the “The grade of pesticide damage/plant: 2” value [2]?
**A.** 0 plant

**Q.** And the “The grade of pesticide damage/plant: 3” value [2]?
**A.** 24 plant

**Q.** What about the “The grade of pesticide damage/plant: 0” value (genotype PPO-AP-01, 60 g ai/ha) of the same compound?
**A.** 0 plant

**Q.** What about the “The grade of pesticide damage/plant: 1” value (genotype PPO-AP-01, 60 g ai/ha) of the same compound?
**A.** 0 plant

**Q.** And the “The grade of pesticide damage/plant: 2” value (genotype PPO-AP-01, 60 g ai/ha)?
**A.** 0 plant

**Q.** And the “The grade of pesticide damage/plant: 3” value (genotype PPO-AP-01, 60 g ai/ha)?
**A.** 24 plant

**Q.** And the “The grade of pesticide damage/plant: 0” value [3]?
**A.** 0 plant

**Q.** And the “The grade of pesticide damage/plant: 1” value [3]?
**A.** 0 plant

**Q.** What about the “The grade of pesticide damage/plant: 2” value [3] of the same compound?
**A.** 0 plant

**Q.** What about the “The grade of pesticide damage/plant: 3” value [3] of the same compound?
**A.** 24 plant

**Q.** And the “tolerance to the herbicide (in words)” value (genotype PPO-AP-01, four-fold field concentration)?
**A.** no tolerance

**Q.** What about the “tolerance to the herbicide (in words)” value (genotype PPO-AP-01, one-fold field concentration) of the same compound?
**A.** no tolerance

**Q.** What about the “The grade of pesticide damage/plant: 0” value (genotype PPOA-01, 60 g ai/ha) of the same compound?
**A.** 24 plant

**Q.** What about the “The grade of pesticide damage/plant: 1” value (genotype PPOA-01, 60 g ai/ha) of the same compound?
**A.** 0 plant

**Q.** What about the “The grade of pesticide damage/plant: 2” value (genotype PPOA-01, 60 g ai/ha) of the same compound?
**A.** 0 plant

**Q.** And the “The grade of pesticide damage/plant: 3” value (genotype PPOA-01, 60 g ai/ha)?
**A.** 0 plant

**Q.** And the “The grade of pesticide damage/plant: 0” value (genotype PPOA-01, 240 g ai/ha)?
**A.** 18 plant

**Q.** What about the “The grade of pesticide damage/plant: 1” value (genotype PPOA-01, 240 g ai/ha) of the same compound?
**A.** 6 plant

**Q.** What about the “The grade of pesticide damage/plant: 2” value (genotype PPOA-01, 240 g ai/ha) of the same compound?
**A.** 0 plant

**Q.** And the “The grade of pesticide damage/plant: 3” value (genotype PPOA-01, 240 g ai/ha)?
**A.** 0 plant

**Q.** And the “The grade of pesticide damage/plant: 0” value (genotype PPOB-01, 60 g ai/ha)?
**A.** 24 plant

**Q.** And the “The grade of pesticide damage/plant: 1” value (genotype PPOB-01, 60 g ai/ha)?
**A.** 0 plant

**Q.** And the “The grade of pesticide damage/plant: 2” value (genotype PPOB-01, 60 g ai/ha)?
**A.** 0 plant

**Q.** And the “The grade of pesticide damage/plant: 3” value (genotype PPOB-01, 60 g ai/ha)?
**A.** 0 plant

**Q.** What about the “The grade of pesticide damage/plant: 0” value (genotype PPOB-01, 240 g ai/ha) of the same compound?
**A.** 18 plant

**Q.** What about the “The grade of pesticide damage/plant: 1” value (genotype PPOB-01, 240 g ai/ha) of the same compound?
**A.** 6 plant

**Q.** And the “The grade of pesticide damage/plant: 2” value (genotype PPOB-01, 240 g ai/ha)?
**A.** 0 plant

**Q.** What about the “The grade of pesticide damage/plant: 3” value (genotype PPOB-01, 240 g ai/ha) of the same compound?
**A.** 0 plant

**Q.** What about the “The grade of pesticide damage/plant: 0” value (genotype PPOC-01, 60 g ai/ha) of the same compound?
**A.** 24 plant

**Q.** And the “The grade of pesticide damage/plant: 1” value (genotype PPOC-01, 60 g ai/ha)?
**A.** 0 plant

**Q.** What about the “The grade of pesticide damage/plant: 2” value (genotype PPOC-01, 60 g ai/ha) of the same compound?
**A.** 0 plant

**Q.** And the “The grade of pesticide damage/plant: 3” value (genotype PPOC-01, 60 g ai/ha)?
**A.** 0 plant

**Q.** And the “The grade of pesticide damage/plant: 0” value (genotype PPOC-01, 240 g ai/ha)?
**A.** 24 plant

**Q.** What about the “The grade of pesticide damage/plant: 1” value (genotype PPOC-01, 240 g ai/ha) of the same compound?
**A.** 0 plant

**Q.** And the “The grade of pesticide damage/plant: 2” value (genotype PPOC-01, 240 g ai/ha)?
**A.** 0 plant

**Q.** What about the “The grade of pesticide damage/plant: 3” value (genotype PPOC-01, 240 g ai/ha) of the same compound?
**A.** 0 plant

**Q.** What about the “The grade of pesticide damage/plant: 0” value (genotype PPOD-01, 60 g ai/ha) of the same compound?
**A.** 24 plant

**Q.** What about the “The grade of pesticide damage/plant: 1” value (genotype PPOD-01, 60 g ai/ha) of the same compound?
**A.** 0 plant

**Q.** And the “The grade of pesticide damage/plant: 2” value (genotype PPOD-01, 60 g ai/ha)?
**A.** 0 plant

**Q.** What about the “The grade of pesticide damage/plant: 3” value (genotype PPOD-01, 60 g ai/ha) of the same compound?
**A.** 0 plant

**Q.** And the “The grade of pesticide damage/plant: 0” value (genotype PPOD-01, 240 g ai/ha)?
**A.** 24 plant

**Q.** What about the “The grade of pesticide damage/plant: 1” value (genotype PPOD-01, 240 g ai/ha) of the same compound?
**A.** 0 plant

**Q.** And the “The grade of pesticide damage/plant: 2” value (genotype PPOD-01, 240 g ai/ha)?
**A.** 0 plant

**Q.** What about the “The grade of pesticide damage/plant: 3” value (genotype PPOD-01, 240 g ai/ha) of the same compound?
**A.** 0 plant

**Q.** And the “The grade of pesticide damage/plant: 0” value (genotype PPOE-01, 60 g ai/ha)?
**A.** 22 plant

**Q.** What about the “The grade of pesticide damage/plant: 1” value (genotype PPOE-01, 60 g ai/ha) of the same compound?
**A.** 2 plant

**Q.** What about the “The grade of pesticide damage/plant: 2” value (genotype PPOE-01, 60 g ai/ha) of the same compound?
**A.** 0 plant

**Q.** And the “The grade of pesticide damage/plant: 3” value (genotype PPOE-01, 60 g ai/ha)?
**A.** 0 plant

**Q.** And the “The grade of pesticide damage/plant: 0” value (genotype PPOE-01, 240 g ai/ha)?
**A.** 23 plant

**Q.** What about the “The grade of pesticide damage/plant: 1” value (genotype PPOE-01, 240 g ai/ha) of the same compound?
**A.** 0 plant

**Q.** And the “The grade of pesticide damage/plant: 2” value (genotype PPOE-01, 240 g ai/ha)?
**A.** 0 plant

**Q.** What about the “The grade of pesticide damage/plant: 3” value (genotype PPOE-01, 240 g ai/ha) of the same compound?
**A.** 1 plant

**Q.** And the “number of non-resistant plants” value (genotype PPOE-01, four-fold field concentration)?
**A.** 1 plant

**Q.** And the “tolerance to the herbicide (in words)” value (genotype PPOE-01, the other plants, four-fold field concentration)?
**A.** high-resistant tolerance

**Q.** And the “The grade of pesticide damage/plant: 0” value (genotype PPOF-01, 60 g ai/ha)?
**A.** 24 plant

**Q.** What about the “The grade of pesticide damage/plant: 1” value (genotype PPOF-01, 60 g ai/ha) of the same compound?
**A.** 0 plant

**Q.** What about the “The grade of pesticide damage/plant: 2” value (genotype PPOF-01, 60 g ai/ha) of the same compound?
**A.** 0 plant

**Q.** What about the “The grade of pesticide damage/plant: 3” value (genotype PPOF-01, 60 g ai/ha) of the same compound?
**A.** 0 plant

**Q.** What about the “The grade of pesticide damage/plant: 0” value (genotype PPOF-01, 240 g ai/ha) of the same compound?
**A.** 18 plant

**Q.** What about the “The grade of pesticide damage/plant: 1” value (genotype PPOF-01, 240 g ai/ha) of the same compound?
**A.** 6 plant

**Q.** And the “The grade of pesticide damage/plant: 2” value (genotype PPOF-01, 240 g ai/ha)?
**A.** 0 plant

**Q.** What about the “The grade of pesticide damage/plant: 3” value (genotype PPOF-01, 240 g ai/ha) of the same compound?
**A.** 0 plant

**Q.** And the “tolerance to the herbicide (in words)” value (genotypes PPOA-01 to PPOD-01 and PPOF-01, four-fold field concentration)?
**A.** high-resistant tolerance

**Q.** And the “tolerance to the herbicide (in words)” value (genotypes PPOA-01 to PPOF-01, one-fold field concentration)?
**A.** high-resistant tolerance
